Test results reported in patent publication EP4610269A1, “UROKINASE PLASMINOGEN ACTIVATOR SURFACE RECEPTOR (UPAR) LIGANDS FOR DIAGNOSTIC OR THERAPEUTIC USE” (3B Pharmaceuticals GmbH, priority 2024, dated 2025).
Read-outs that look alike come from different tables or passages of the source. Where a SMILES comes first, the peptide text is derived from it. Bridges are numbered along the chain shown (N, C = ends). [ ]: non-standard residue; d: D form. The star is where a group is joined. DOTA = O=C(O)CN1CCN(CC(=O)O)CCN(CC(=O)*)CCN(CC(=O)O)CC1; Hyp = O=C(O)[C@@H]1C[C@@H](O)CN1; Pentanoyl(4-Me) = CC(C)CCC(=O)*; Cit = NC(=O)NCCC[C@H](N)C(=O)O; Nva = CCC[C@H](N)C(=O)O; Pentanoyl = CCCCC(=O)*

Columns and labels:
[1] = molecular target: T1, human uPAR (uPAR-Fc) (Homo sapiens, UniProt Q03405); test: Surface plasmon resonance (SPR) assay, single cycle kinetics; type: binding; settings: pKD category for uPAR SPR activity assay, uPAR-Fc on Protein A-Chip, 25°C, read-out: pKD CAT (converted)
T1 construct: comprising amino acids Leu23-Arg303 according to UniProt entry Q03405.1; purchased R&D Systems 10378-UK-100
T1 sequence (Q03405 23-303): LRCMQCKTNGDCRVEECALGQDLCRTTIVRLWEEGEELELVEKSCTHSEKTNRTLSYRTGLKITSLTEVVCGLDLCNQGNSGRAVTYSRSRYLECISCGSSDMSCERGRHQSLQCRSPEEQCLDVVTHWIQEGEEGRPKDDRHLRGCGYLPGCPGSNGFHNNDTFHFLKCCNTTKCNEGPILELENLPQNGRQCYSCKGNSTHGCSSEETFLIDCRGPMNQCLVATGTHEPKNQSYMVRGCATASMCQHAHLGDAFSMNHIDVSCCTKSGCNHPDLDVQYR
Method in brief: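 uPAR-Fc (Leu23-Arg303 extracellular domains, human IgG1 Fc) captured on Protein A chip to ~2000 RU; single-cycle kinetics at 25°C in HEPES running buffer pH 7.4 with 0.1% DMSO. KD from double-referenced sensorgrams fitted to 1:1 Langmuir model, reported as pKD.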

[2] = molecular target: T2, Recombinant soluble human NEP (Homo sapiens, UniProt P08473); test: Proteolytic stability assay against NEP; type: in vitro ADME; settings: recombinant soluble human NEP, human NEP 100 ng/mL, compound 10 µM, 37°C, LC-MS quantification, read-out: % intact compound remaining after 24h incubation
T2 construct: Recombinant soluble human NEP; purchased BioTechne, Wiesbaden, Germany
T2 sequence (P08473 52-750 limits assumed): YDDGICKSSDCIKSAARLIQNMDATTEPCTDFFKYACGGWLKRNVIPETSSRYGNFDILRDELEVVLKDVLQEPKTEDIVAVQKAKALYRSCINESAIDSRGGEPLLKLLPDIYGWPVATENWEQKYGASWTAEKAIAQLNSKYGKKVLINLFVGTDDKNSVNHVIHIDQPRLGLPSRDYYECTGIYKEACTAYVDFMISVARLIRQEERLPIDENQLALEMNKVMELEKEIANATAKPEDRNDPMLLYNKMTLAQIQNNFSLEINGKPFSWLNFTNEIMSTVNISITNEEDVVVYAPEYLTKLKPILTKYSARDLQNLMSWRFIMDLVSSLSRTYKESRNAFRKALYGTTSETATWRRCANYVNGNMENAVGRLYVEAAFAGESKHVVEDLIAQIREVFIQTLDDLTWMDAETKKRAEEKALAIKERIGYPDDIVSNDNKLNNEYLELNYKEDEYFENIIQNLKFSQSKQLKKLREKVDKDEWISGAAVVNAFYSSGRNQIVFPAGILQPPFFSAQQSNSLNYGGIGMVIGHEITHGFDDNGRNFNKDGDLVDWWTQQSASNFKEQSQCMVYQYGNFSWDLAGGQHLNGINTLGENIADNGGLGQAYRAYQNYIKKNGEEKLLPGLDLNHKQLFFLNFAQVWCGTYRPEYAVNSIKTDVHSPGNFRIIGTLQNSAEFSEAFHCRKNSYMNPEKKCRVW
Procedure: To assess the stability of compounds against NEP, the compounds were subjected to an in vitro assay based on the protocol described by Edelson et al. (Edelson, Makhlina et al. 2013).
Recombinant soluble human NEP (BioTechne, Wiesbaden, Germany) at a concentration of 100 ng/mL was mixed with the compound (10 µM) and a stable internal standard (10 µM) and incubated at 37°C. After several time points, samples were taken and analyzed with LC-MS.
The determination of the analyte in the clean sample solutions was performed on an Agilent 1290 UHPLC system coupled to an Agilent 6530 Q-TOF mass spectrometer. The chromatographic separation was carried out on a Phenomenex BioZen XB-C18 HPLC column (50 × 2 mm, 1.7 µm particle size) with gradient elution using a mixture of 0.1% formic acid in water as eluent A and acetonitrile as eluent B (2% B to 41% in 7 min, 800 µl/min, 40°C). Mass spectrometric detection was performed in positive ion ESI mode by scanning the mass range from m/z 50 to 3000 with a sampling rate of 2 / sec.
From the mass spectrometric raw data the ion currents for the double or triple charged monoisotopic signal was extracted for both, the compound and the internal standard.
Quantitation was performed by external matrix calibration with internal standard using the integrated analyte signals.
The activity of NEP was examined using a commercially available chromogenic substrate of NEP.
The result is stated as "% intact compound remaining after 24 h incubation" and means that from the amount of material at the start of the experiment the stated percentage is detected as unchanged material at the end of the experiment by LC-MS quantification. Since all compounds are more than 50% intact after 24 h they are considered as stable enough for diagnostic and therapeutic applications. Table 14: Results of the NEP stability assay

SMILES: CC[C@H](C)[C@@H]1NC(=O)[C@@H](C)NC(=O)[C@@H]2CCCN2C(=O)[C@H](Cc2ccccc2)NC(=O)[C@H](Cc2ccc(O)cc2)NC(=O)[C@H](CCCCNC(=O)CN2CCN(CC(=O)O)CCN(CC(=O)O)CCN(CC(=O)O)CC2)NC(=O)[C@H](CCCNC(N)=O)NC(=O)[C@@H](NC(=O)[C@H](CC(C)C)NC(=O)[C@H](CC(=O)O)NC(C)=O)CSSC[C@@H](C(N)=O)NC(=O)[C@H](CC(C)C)NC1=O [UPAR-189, Ac-Asp-Leu-[Cys-Cit-Lys(DOTA)-Tyr-Phe-Pro-ala-Ile-Leu-Cys]-NH2] (Ac-DLC[Cit]K(DOTA)YFP[dA]ILC-NH2; disulfide 3-12)
- Kd [1]: < 1.58 nM
- remaining at 24 h, 10 µM [2]: 94%

SMILES: CCCCC(=O)N[C@H]1CSSC[C@@H](C(N)=O)NC(=O)[C@H](CCC)NC(=O)[C@H]([C@@H](C)CC)NC(=O)[C@@H]2C[C@@H](O)CN2C(=O)[C@@H]2C[C@@H](O)CN2C(=O)[C@H](Cc2ccccc2)NC(=O)[C@H](Cc2ccc(O)cc2)NC(=O)[C@H](CCCCNC(=O)CN2CCN(CC(=O)O)CCN(CC(=O)O)CCN(CC(=O)O)CC2)NC(=O)[C@H](CCCNC(N)=O)NC1=O [UPAR-403, Pent-[Cys-Cit-Lys(DOTA)-Tyr-Phe-Hyp-Hyp-Ile-Nva-Cys]-NH2] (Pentanoyl-C[Cit]K(DOTA)YF[Hyp][Hyp]I[Nva]C-NH2; disulfide 1-10)
- Kd ([1]; single cycle kinetics): < 1.58 nM
- remaining at 24 h, 10 µM [2]: 95%

SMILES: CC[C@H](C)[C@@H]1NC(=O)[C@@H]2CCCN2C(=O)[C@@H]2CCCN2C(=O)[C@H](Cc2ccccc2)NC(=O)[C@H](Cc2ccc(O)cc2)NC(=O)[C@H](CCCCNC(=O)CN2CCN(CC(=O)O)CCN(CC(=O)O)CCN(CC(=O)O)CC2)NC(=O)[C@H](CCCNC(N)=O)NC(=O)[C@@H](NC(=O)CCC(C)C)CSSC[C@@H](C(N)=O)NC(=O)[C@H](CC(C)C)NC1=O [UPAR-382, iHex-[Cys-Cit-Lys(DOTA)-Tyr-Phe-Pro-Pro-Ile-Leu-Cys]-NHz] ({Pentanoyl(4-Me)}-C[Cit]K(DOTA)YFPPILC-NH2; disulfide 1-10)
- Kd ([1]; single cycle kinetics): < 1.58 nM
- remaining at 24 h, 10 µM [2]: > 95%

SMILES: CC[C@H](C)[C@@H]1NC(=O)[C@@H](C)NC(=O)[C@@H]2CCCN2C(=O)[C@H](Cc2ccccc2)NC(=O)[C@H](Cc2ccc(O)cc2)NC(=O)[C@H](CCC(N)=O)NC(=O)[C@H](CCCNC(N)=O)NC(=O)[C@@H](NC(=O)CCC(C)C)CSSC[C@@H](C(N)=O)NC(=O)[C@H](CC(C)C)NC1=O [UPAR-338, iHex-[Cys-Cit-Gln-Tyr-Phe-Pro-ala-Ile-Leu-Cys]-NH2] ({Pentanoyl(4-Me)}-C[Cit]QYFP[dA]ILC-NH2; disulfide 1-10)
- Kd [1]: < 1.58 nM
- remaining at 24 h, 10 µM [2]: 70%
